Source: patent US10538554B2, “Peptides and uses therefor as antiviral agents” (priority 2015, dated 2020)
Where two headings read alike, the source gives them in different places. Bridge positions count the residues as written; N and C are the ends. Square brackets hold non-standard residues; d marks the D form. Peptide text beside a SMILES is read from it.

Experiments:
H9N2 A/Iran/16/2000 = conditions: 48 h
[1] = test system: H1N1 A1/Malaysia/302/1954; conditions: A1/Malaysia/302/1954, 48 h
H3N8 A/Miami/2/63 = conditions: A/Miami/2/63, 48 h
H3N2 A/HK/8/1968 = conditions: A/HK/8/1968, 48 h, 50 μM
H1N1 A/NY/18/2009 = conditions: A/NY/18/2009, 48 h, 10 μM

Compound	% inhibition H9N2 (H9N2 A/Iran/16/2000; 50 μM)	% inhibition H1N1 ([1]; 50 μM)	% inhibition H3N8 (H3N8 A/Miami/2/63; 50 μM)	% inhibition H3N2 (H3N2 A/HK/8/1968)	% inhibition H9N2 (H9N2 A/Iran/16/2000; 10 μM)	% inhibition H1N1 ([1]; 10 μM)	% Inhibition Pdm 2009 (H1N1 A/NY/18/2009)	% inhibition H3N8 (H3N8 A/Miami/2/63; 10 μM)
CC[C@@H](C)[C@H]1NC(=O)[C@@H](Cc2ccccc2)NC(=O)[C@@H](CCCNC(=N)N)NC(=O)[C@@H](C(C)C)NC(=O)[C@@H](Cc2c[nH]c3ccccc23)NC(=O)[C@@H]([C@H](C)O)NC(=O)[C@H](NC(=O)[C@H](CCCCN)NC(=O)[C@H](CCCCN)NC(=O)[C@H](CCCNC(=N)N)NC(=O)[C@@H](N)CCCNC(=N)N)CSSC[C@H](C(=O)O)NC(=O)[C@@H](CC(N)=O)NC1=O [PSP III B18, H-RRKKctwvrfinc-OH] (H-RRKK[dC][dT][dW][dV][dR][dF][dI][dN][dC]-OH; disulfide 5-13)	88%	90%	100%	100%				
CC[C@@H](C)[C@H]1NC(=O)[C@@H](Cc2ccccc2)NC(=O)[C@@H](CCCNC(=N)N)NC(=O)[C@@H](Cc2c[nH]c3ccccc23)NC(=O)[C@@H](Cc2c[nH]c3ccccc23)NC(=O)[C@@H]([C@H](C)O)NC(=O)[C@H](NC(=O)[C@H](CCCCN)NC(=O)[C@H](CCCCN)NC(=O)[C@H](CCCNC(=N)N)NC(=O)[C@@H](N)CCCNC(=N)N)CSSC[C@H](C(=O)O)NC(=O)[C@@H](CC(N)=O)NC1=O [PSP III B19, H-RRKKctwwrfinc-OH] (H-RRKK[dC][dT][dW][dW][dR][dF][dI][dN][dC]-OH; disulfide 5-13)	97%	94%	100%	100%				
CC[C@@H](C)[C@H]1NC(=O)[C@@H](Cc2ccccc2)NC(=O)[C@@H](CCCNC(=N)N)NC(=O)[C@@H](Cc2ccc(O)cc2)NC(=O)[C@@H](Cc2c[nH]c3ccccc23)NC(=O)[C@@H]([C@H](C)O)NC(=O)[C@H](NC(=O)[C@H](CCCCN)NC(=O)[C@H](CCCCN)NC(=O)[C@H](CCCNC(=N)N)NC(=O)[C@@H](N)CCCNC(=N)N)CSSC[C@H](C(=O)O)NC(=O)[C@@H](CC(N)=O)NC1=O [PSP III B20, H-RRKKctwyrfinc-OH] (H-RRKK[dC][dT][dW][dY][dR][dF][dI][dN][dC]-OH; disulfide 5-13)	86%	83%	96%	100%				
CC[C@@H](C)[C@H]1NC(=O)[C@@H](Cc2ccccc2)NC(=O)[C@@H](C)NC(=O)[C@@H](Cc2ccccc2)NC(=O)[C@@H](Cc2c[nH]c3ccccc23)NC(=O)[C@@H]([C@H](C)O)NC(=O)[C@H](NC(=O)[C@H](CCCCN)NC(=O)[C@H](CCCCN)NC(=O)[C@H](CCCNC(=N)N)NC(=O)[C@@H](N)CCCNC(=N)N)CSSC[C@H](C(=O)O)NC(=O)[C@@H](CC(N)=O)NC1=O [PSP IV A1, H-RRKKctwfafinc-OH] (H-RRKK[dC][dT][dW][dF][dA][dF][dI][dN][dC]-OH; disulfide 5-13)					77%	78%	78%	83%
CC[C@@H](C)[C@H]1NC(=O)[C@@H](Cc2ccccc2)NC(=O)[C@@H](CC(=O)O)NC(=O)[C@@H](Cc2ccccc2)NC(=O)[C@@H](Cc2c[nH]c3ccccc23)NC(=O)[C@@H]([C@H](C)O)NC(=O)[C@H](NC(=O)[C@H](CCCCN)NC(=O)[C@H](CCCCN)NC(=O)[C@H](CCCNC(=N)N)NC(=O)[C@@H](N)CCCNC(=N)N)CSSC[C@H](C(=O)O)NC(=O)[C@@H](CC(N)=O)NC1=O [PSP IV A3, H-RRKKctwfdfinc-OH] (H-RRKK[dC][dT][dW][dF][dD][dF][dI][dN][dC]-OH; disulfide 5-13)					30%	49%	72%	59%
